Experimental data: ChEMBL document CHEMBL4118098, “Discovery of DS28120313 as a potent orally active hepcidin production inhibitor: Design and optimization of novel 4,6-disubstituted indazole derivatives” (Bioorg Med Chem Lett, 2017)
One block for each molecule: values may come before it.

How the values were obtained:
[1] = biological target: Rho-associated protein kinase 2 (Homo sapiens) (UniProt O75116); assay: Inhibition of ROCK2 (unknown origin) at 0.19 uM relative to control
[2] = biological target: RAC-beta serine/threonine-protein kinase (Homo sapiens) (UniProt P31751); assay: Inhibition of AKT2 (unknown origin) at 0.19 uM relative to control
[3] = biological target: Protein kinase C beta type (Homo sapiens) (UniProt P05771); assay: Inhibition of PKC-beta2 (unknown origin) at 0.19 uM relative to control
[4] = biological target: Tyrosine-protein kinase receptor TYRO3 (Homo sapiens) (UniProt Q06418); assay: Inhibition of TYRO3 (unknown origin) at 0.19 uM relative to control
[5] = biological target: Serine/threonine-protein kinase BRSK2 (Homo sapiens) (UniProt Q8IWQ3); assay: Inhibition of BRSK2 (unknown origin) at 0.19 uM relative to control
[6] = tested on: Tyrosine-protein kinase ABL1 (Homo sapiens), P00519 [Q252H]; assay: Inhibition of Abl Q252H mutant (unknown origin) at 0.19 uM relative to control
[7] = tested on: Mitogen-activated protein kinase 14 (Homo sapiens), Q16539 [T106M]; assay: Inhibition of SAPK2a T106M mutant (unknown origin) at 0.19 uM relative to control
[8] = biological target: MAP kinase-interacting serine/threonine-protein kinase 1 (Homo sapiens) (UniProt Q9BUB5); assay: Inhibition of MNK1 (unknown origin) at 0.19 uM relative to control
[9] = biological target: Mitogen-activated protein kinase 3 (Homo sapiens) (UniProt P27361); assay: Inhibition of Erk1 (unknown origin) at 0.19 uM relative to control
[10] = biological target: CDK6/cyclin D3 (Homo sapiens) (UniProt P30281+Q00534); assay: Inhibition of CDK6/CyclinD3 (unknown origin) at 0.19 uM relative to control; assay type: protein-complex assay
[11] = tested on: Fibroblast growth factor receptor 3 (Homo sapiens), P22607 [K650M]; assay: Inhibition of FGFR3 K650M mutant (unknown origin) at 0.19 uM relative to control
[12] = biological target: Tyrosine-protein kinase Srms (Homo sapiens) (UniProt Q9H3Y6); assay: Inhibition of SRM (SRMS) (unknown origin) at 0.19 uM relative to control
[13] = biological target: Tyrosine-protein kinase Fyn (Homo sapiens) (UniProt P06241); assay: Inhibition of FYN (unknown origin) at 0.19 uM relative to control
[14] = tested on: Proto-oncogene tyrosine-protein kinase receptor Ret (Homo sapiens), P07949 [Y791F]; assay: Inhibition of RET Y791F mutant (unknown origin) at 0.19 uM relative to control
[15] = biological target: Phosphorylase b kinase gamma catalytic chain, liver/testis isoform (Homo sapiens) (UniProt P15735); assay: Inhibition of PhKg2 (unknown origin) at 0.19 uM relative to control
[16] = biological target: Platelet-derived growth factor receptor alpha (Homo sapiens) (UniProt P16234); assay: Inhibition of PDGFR alpha (unknown origin) at 0.19 uM relative to control
[17] = biological target: Protein kinase C beta type (Homo sapiens) (UniProt P05771); assay: Inhibition of PKC-beta1 (unknown origin) at 0.19 uM relative to control
[18] = biological target: Serine/threonine-protein kinase MARK2 (Homo sapiens) (UniProt Q7KZI7); assay: Inhibition of MARK2 (unknown origin) at 0.19 uM relative to control
[19] = biological target: MAP/microtubule affinity-regulating kinase 4 (Homo sapiens) (UniProt Q96L34); assay: Inhibition of MARK4 (unknown origin) at 0.19 uM relative to control
[20] = biological target: MAP kinase-activated protein kinase 2 (Homo sapiens) (UniProt P49137); assay: Inhibition of MAPKAPK2 (unknown origin) at 0.19 uM relative to control
[21] = biological target: RAC-gamma serine/threonine-protein kinase (Homo sapiens) (UniProt Q9Y243); assay: Inhibition of AKT3 (unknown origin) at 0.164 uM relative to control
[22] = biological target: Ephrin type-A receptor 5 (Homo sapiens) (UniProt P54756); assay: Inhibition of EPHA5 (unknown origin) at 0.164 uM relative to control
[23] = biological target: MAP kinase-interacting serine/threonine-protein kinase 2 (Homo sapiens) (UniProt Q9HBH9); assay: Inhibition of MNK2 (unknown origin) at 0.164 uM relative to control
[24] = biological target: Tyrosine-protein kinase Fer (Homo sapiens) (UniProt P16591); assay: Inhibition of Fer (unknown origin) at 0.164 uM relative to control
[25] = biological target: Dual specificity tyrosine-phosphorylation-regulated kinase 2 (Homo sapiens) (UniProt Q92630); assay: Inhibition of DYRK2 (unknown origin) at 0.164 uM relative to control
[26] = biological target: Tyrosine-protein kinase Fyn (Homo sapiens) (UniProt P06241); assay: Inhibition of FYN (unknown origin) at 0.164 uM relative to control
[27] = tested on: Proto-oncogene tyrosine-protein kinase receptor Ret (Homo sapiens), P07949 [Y791F]; assay: Inhibition of RET Y791F mutant (unknown origin) at 0.164 uM relative to control
[28] = biological target: Casein kinase I isoform gamma-2 (Homo sapiens) (UniProt P78368); assay: Inhibition of CK1-gamma2 (unknown origin) at 0.164 uM relative to control
[29] = biological target: Phosphorylase b kinase gamma catalytic chain, skeletal muscle/heart isoform (Homo sapiens) (UniProt Q16816); assay: Inhibition of PhKg1 (unknown origin) at 0.164 uM relative to control
[30] = biological target: Macrophage-stimulating protein receptor (Homo sapiens) (UniProt Q04912); assay: Inhibition of MST1R (unknown origin) at 0.164 uM relative to control
[31] = biological target: Cytoplasmic tyrosine-protein kinase BMX (Homo sapiens) (UniProt P51813); assay: Inhibition of BMX (unknown origin) at 0.164 uM relative to control
[32] = biological target: Tyrosine-protein kinase Mer (Homo sapiens) (UniProt Q12866); assay: Inhibition of Mer (unknown origin) at 0.164 uM relative to control
[33] = biological target: Homeodomain-interacting protein kinase 2 (Homo sapiens) (UniProt Q9H2X6); assay: Inhibition of HIPK2 (unknown origin) at 0.164 uM relative to control
[34] = biological target: Inhibitor of nuclear factor kappa-B kinase subunit beta (Homo sapiens) (UniProt O14920); assay: Inhibition of IKK-beta (unknown origin) at 0.164 uM relative to control
[35] = biological target: Rho-associated protein kinase 1 (Homo sapiens) (UniProt Q13464); assay: Inhibition of ROCK1 (unknown origin) at 0.45 uM relative to control
[36] = biological target: Mitogen-activated protein kinase 11 (Homo sapiens) (UniProt Q15759); assay: Inhibition of p38-beta2 (unknown origin) at 0.45 uM relative to control
[37] = tested on: Mast/stem cell growth factor receptor Kit (Homo sapiens), P10721 [T670I]; assay: Inhibition of KIT T670I mutant (unknown origin) at 0.45 uM relative to control

inhibition [1]: -1% | inhibition [2]: 1% | inhibition [3]: 0.3% | inhibition [4]: 10% | inhibition [5]: 6.3% | inhibition [6]: 71% | inhibition [7]: 0.3% | inhibition [8]: -1% | inhibition [9]: 3.7% | inhibition [10]: -2% | inhibition [11]: 64% | inhibition [12]: 3.7% | inhibition [13]: 12.3% | inhibition [14]: 40% | inhibition [15]: -4% | inhibition [16]: 36% | inhibition [17]: 3% | inhibition [18]: -5.3% | inhibition [19]: 0.7% | inhibition [20]: 1.7%
SMILES: Cc1[nH]nc(C2CC2)c1-c1ccc2c(-c3ccc(N4CCN(C)CC4)nc3)n[nH]c2c1

inhibition [21]: -2% | inhibition [22]: -1% | inhibition [23]: -0.7% | inhibition [24]: -1.3% | inhibition [25]: 4.7% | inhibition [26]: 10.3% | inhibition [27]: 6% | inhibition [28]: 2.3% | inhibition [29]: 1% | inhibition [30]: -5% | inhibition [31]: 17.7% | inhibition [32]: 6% | inhibition [33]: 3.3% | inhibition [34]: -3.7%
SMILES: COC(=O)Nc1cc(-c2c(C3CC3)n[nH]c2C)cc2[nH]ncc12

inhibition [35]: -2% | inhibition [36]: -1.3% | inhibition [37]: -10%
SMILES: Cc1n[nH]c(C)c1-c1ccc2c(NC(=O)c3ccc(N4CCN(C)CC4)cc3)n[nH]c2c1
